What was measured:
5×FAD transgenic mice [1] = test: Brain slice electrophysiology test (hippocampal LTP) in 5×FAD transgenic mice; format: in vivo, mouse; conditions: brain slices after 16 weeks of administration; edaravone 6 mg/kg or composition 7.5 mg/kg i.p. once daily
Protocol: (§1) In the experiment, the animals were divided into 4 groups. Administration was performed on the mice in each group from 8 weeks of age. After 16 weeks of continuous daily administration, water maze and Y maze behavioral tests were performed. After the behavioral tests were completed, the animals were sacrificed, and brain slice electrophysiology and AD pathology within the brain were tested, including the test of Aβ plaques, biomarkers such as GFAP and Iba-1, p-Tau, etc.
Electrophysiological recording was performed after the behavioral test of mice was completed. After anesthesia, all mice were euthanized, the brain tissues were rapidly collected and stored in 4° C. oxygenated (95% O2/5% CO2) artificial cerebrospinal fluid (ACSF) (75 mM sucrose, 87 mM NaCl, 2.5 mM KCl), 1.25 mM NaH2PO4, 21.4 mM NaHCO3, 0.5 mM CaCl2, 7 mM MgCl2 and 20 mM glucose. Hippocampal slices were cut by a vibrating knife in 4° C. oxygenated ACSF, and in 32° C. oxygenated ACSF. Next, the slices were incubated at room temperature for 1 hour before recording. Hippocampal LTP was induced by two theta burst stimulations (TBS). Data acquisition and analysis were performed using Clampex and Clampfit 8.2 (Molecular Devices).
Data were expressed as Mean±SEM. […]

[2] = test system: SH-SY5Y and primary cortical neurons; conditions: cited from earlier work
5×FAD transgenic mice [3] = test: AD pathology examination (immunohistochemical test) in 5×FAD transgenic mice; format: in vivo, mouse; conditions: 5×FAD mice; edaravone 6 mg/kg or composition 7.5 mg/kg i.p. once daily for 16 weeks
Protocol: as §1
After the behavioral test of animals was completed, the mice were subjected to cardiac perfusion followed by brain removal, and the brain was fixed in 4% paraformaldehyde for 24 h, dehydrated with 30% sucrose, snap-frozen and embedded with an embedding medium, and sliced (thickness […]). The brain slices having the hippocampal region were selected, washed with PBS for 5 min×3 times, permeabilized with 0.2% Triton, washed with PBS for 7 min×3 times, and blocked with Blocking buffer (2.5% BSA, 0.3% Triton) for 1 h. The brain slices were placed in a primary antibody overnight at 4° C. On the second day, the brain slices in the primary antibody were taken out, washed with PBS for 5 min×3 times, placed in a second antibody, and incubated for 1 h at room temperature in the dark. The brain slices were taken out and washed with PBS for 5 min×3 times. An anti-fluorescence quencher containing DAPI was added dropwise, and the slices were mounted.
Data were expressed as Mean±SEM. Statistical analysis between groups was performed using Prism software (GraphPad, USA): One-way or Two-way ANOVA was used for comparison of two or more groups, and then Fisher's LSD test was selected for analysis. P<0.05 indicated significant difference. ##p<0.01, ###p<0.001, ####p<0.0001, comparison with WT group; *p<0.05, **p<0.01, […], ****p<0.0001, comparison with model group; & p<0.05, &&p<0.01, &&&&p<0.0001, comparison between two groups indicated.

[4] = test system: mouse model of AlCl3/D-galactose-induced cognitive impairment; conditions: intraperitoneal for 15 consecutive days; cited from earlier work
ICV-STZ model rats [5] = test: Morris water maze test in rats of intracerebroventricular STZ-induced dementia; format: in vivo, rat; conditions: edaravone 6 mg/kg (plus dexborneol 0.8, 1.2 or 2.4 mg/kg), intraperitoneal, once daily
Protocol: The experimental animals were divided into […]: sham surgery group, model group, edaravone group (6 mg/kg), edaravone and dexborneol (7.5:1) composition (edaravone 6 mg/kg, dexborneol 0.8 mg/kg), edaravone and dexborneol (5:1) composition (edaravone 6 mg/kg, dexborneol 1.2 mg/kg), and edaravone and dexborneol (2.5:1) composition (edaravone 6 mg/kg, dexborneol 2.4 mg/kg). The animals in the model group and sham surgery groups were given the corresponding volume of blank solvent (8% propylene glycol), all administrations were intraperitoneal injection administrations, and the administration volume is 10 ml/kg.
In addition to the sham surgery group, animals with successful surgery were randomly assigned to the model group and administration groups in order. […]
This trial lasted for 4 days. The platform was fixed in the target quadrant (SE quadrant) during the trial, water entry was performed from the water entry points of the four quadrants, respectively, animals were gently placed in the water facing the sign on the pool wall during training, the time (escape latency) for the animal to find the platform was recorded, and then the animal was allowed to stay on the platform for 10 s. […]

[6] = test system: rat model of scopolamine-induced dementia; conditions: oral 15 mg/kg/day for 7 consecutive days; cited from earlier work
ICV-STZ model rats [7] = conditions: cited from earlier work

For CC1=NN(c2ccccc2)C(=O)C1 [edaravone, 3-methyl-1-phenyl-2-pyrazolin-5-one], the “restoration of hippocampal LTP, vs 5×FAD mouse group” value (5×FAD transgenic mice [1]) is given as “no obvious restoration effect”, the “neurotoxicity of Aβ1-42” value [2] is given as “capable of reducing the neurotoxicity of Aβ1-42 to SH-SY5Y and primary cortical neurons” and the “astrogliosis within the brain, vs solvent control group” value (5×FAD transgenic mice [3]) is given as “could significantly decrease”. The “hippocampal tau protein hyperphosphorylation, vs solvent control group” value (5×FAD transgenic mice [3]) was “could significantly decrease”, the “microgliosis within the brain, vs solvent control group” value (5×FAD transgenic mice [3]) was “could significantly decrease” and the “β-amyloid plaques within the brain, vs solvent control group” value (5×FAD transgenic mice [3]) was “could significantly decrease”. The “cognitive function in water maze test and step-down test” value [4] was “significantly improves the cognitive function as tested by water maze test and step-down test”, the “escape latency in water maze hidden platform trial, vs model group” value (ICV-STZ model rats [5]) was “could significantly shorten the escape latency” and the “residence time in the target quadrant in water maze space probe trial, vs model group” value (ICV-STZ model rats [5]) was “significantly prolonged”. The “scopolamine-induced spatial learning and long-term memory impairments” value [6] was “can improve scopolamine-induced spatial learning and long-term memory impairments”, the “spatial learning and memory (Morris water maze) and non-spatial long-term memory (step-down passive avoidance)” value (ICV-STZ model rats [7]; intraperitoneal 9 mg/kg/day for 14 consecutive days) was “can significantly improve the spatial learning and memory” and the “cognitive function in water maze test and passive avoidance test” value (ICV-STZ model rats [7]; oral 1, 3 and 10 mg/kg/day for 28 consecutive days) was “can also improve the cognitive function of ICV-STZ rats in water maze test and passive avoidance test”.
